Test results reported in patent US20090253718A1, “Pharmaceutical Compounds” (Astex Therapeutics Limited, priority 2006, published 2009).

Tests used:
rat MM1 hepatoma cells = conditions: cited from earlier work
MM1 cells = conditions: continuous delivery using osmotic pumps, syngeneic rats; cited from earlier work
[1] = tested on: isolated rabbit urinary bladder smooth muscle; conditions: cited from earlier work
ROCK-II (h) = ROCK-II (h) (Homo sapiens, UniProt O75116); test: ROCK-II (h) radiometric kinase assay; type: biochemical; conditions: read-out: IC50 anti-ROCK-II activity
Method: In a final reaction volume of 25 μl, ROCK-II (h) (5-10 mU) is incubated with 50 mM Tris pH 7.5, 0.1 mM EGTA, 30 μM […], 10 mM MgAcetate and [γ-^33P-ATP] (specific activity approx. 500 cpm/pmol, concentration as required). The reaction is initiated by the addition of the MgATP mix. After incubation for 40 minutes at room temperature, the reaction is stopped by the addition of 5 μl of a 3% phosphoric acid solution. 10 μl of the reaction is then spotted onto a P30 filtermat and washed three times for 5 minutes in 75 mM phosphoric acid and once in methanol prior to drying and scintillation counting.
The compound of example 29 was tested for anti-ROCK-II activity (assay as described above): […]

ROCK-II (h), sequence (O75116 whole entry): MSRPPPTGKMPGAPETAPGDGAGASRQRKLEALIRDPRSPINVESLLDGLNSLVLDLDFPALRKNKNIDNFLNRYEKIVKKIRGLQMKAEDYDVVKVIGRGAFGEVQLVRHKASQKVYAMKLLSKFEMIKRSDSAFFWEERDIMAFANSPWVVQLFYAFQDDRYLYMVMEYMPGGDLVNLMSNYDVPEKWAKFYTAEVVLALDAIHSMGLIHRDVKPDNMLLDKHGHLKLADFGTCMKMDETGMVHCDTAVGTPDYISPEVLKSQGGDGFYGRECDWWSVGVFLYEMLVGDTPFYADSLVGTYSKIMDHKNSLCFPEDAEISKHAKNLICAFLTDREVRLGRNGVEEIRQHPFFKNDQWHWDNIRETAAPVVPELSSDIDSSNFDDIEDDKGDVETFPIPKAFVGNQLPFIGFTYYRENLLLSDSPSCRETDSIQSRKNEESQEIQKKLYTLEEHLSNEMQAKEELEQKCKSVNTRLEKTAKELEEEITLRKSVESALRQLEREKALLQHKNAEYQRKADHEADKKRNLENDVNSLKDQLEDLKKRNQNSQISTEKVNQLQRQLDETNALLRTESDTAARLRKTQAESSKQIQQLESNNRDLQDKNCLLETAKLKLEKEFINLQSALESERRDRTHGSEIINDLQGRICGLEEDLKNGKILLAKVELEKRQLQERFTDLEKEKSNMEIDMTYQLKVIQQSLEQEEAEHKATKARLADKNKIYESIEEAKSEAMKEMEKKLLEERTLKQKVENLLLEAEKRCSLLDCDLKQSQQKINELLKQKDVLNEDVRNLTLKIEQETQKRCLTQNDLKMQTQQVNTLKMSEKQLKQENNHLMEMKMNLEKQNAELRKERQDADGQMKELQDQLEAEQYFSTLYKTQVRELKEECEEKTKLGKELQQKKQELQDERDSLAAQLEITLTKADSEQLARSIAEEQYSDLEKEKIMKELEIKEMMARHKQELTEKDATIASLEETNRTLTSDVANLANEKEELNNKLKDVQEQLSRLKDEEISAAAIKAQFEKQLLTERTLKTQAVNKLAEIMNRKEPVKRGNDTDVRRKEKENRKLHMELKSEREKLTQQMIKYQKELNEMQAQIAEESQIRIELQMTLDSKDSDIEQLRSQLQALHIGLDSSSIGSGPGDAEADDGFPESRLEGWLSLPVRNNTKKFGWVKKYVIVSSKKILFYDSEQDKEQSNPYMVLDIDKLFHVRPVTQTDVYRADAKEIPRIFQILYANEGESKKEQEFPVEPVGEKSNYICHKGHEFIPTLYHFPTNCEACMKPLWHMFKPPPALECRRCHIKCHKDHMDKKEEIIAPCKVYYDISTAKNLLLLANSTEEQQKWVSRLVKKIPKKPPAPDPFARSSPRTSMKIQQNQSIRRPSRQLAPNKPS

Row | SMILES | Rho-mediated activation of actomyosin (rat MM1 hepatoma cells) | invasive activity (rat MM1 hepatoma cells) | dissemination of MM1 cells (MM1 cells) | bethanechol-evoked contractions [1] | IC50 (ROCK-II (h)) [nM]
1 | C[C@@H](N)[C@H]1CC[C@H](C(=O)Nc2ccncc2)CC1 [Example Y-27632] | blocked | blocked | considerably reduced | attenuates | 
2 | NC(c1ccc(Cl)cc1)C1CCN(c2ccnc3[nH]ccc23)CC1 (centres unmarked) [Example 29, C-(4-Chlorophenyl)-C-[1-(1H-pyrrolo[2,3-b]pyridin-4-yl)piperidin-4-yl]methylamine] |  |  |  |  | < 100
